What was measured:
[1] = test system: HN5 xenografts; settings: HN5 xenografts in nude mice; cited from earlier work
[2] = test system: H1975 tumor cell line (EGFR T790M in combination with L858R); experiment: sensitivity of H1975 tumor cell line to treatment
[3] = test system: cell cycle; settings: cited from earlier work
[4] = with paclitaxel, cisplatin, gemcitabine, and doxorubicin; cited from earlier work
[5] = test system: A431 xenografts; settings: A431 xenografts in nude mice; cited from earlier work

SMILES: C#Cc1cccc(Nc2ncnc3cc(OCCOC)c(OCCOC)cc23)c1 [erlotinib]
- growth inhibition of xenografts [1]: marked growth inhibition
- response of tumor cell line to treatment [2]: resistance
- cell cycle effect [3]: cell cycle arrest at G1
- interaction with chemotherapy agents [4]: additive interaction
- growth inhibition of xenografts [5]: marked growth inhibition

From patent US20150197814A1, “EGFR AND KRAS MUTATIONS” (Genentech, Inc., priority 2005, published 2015)
